Measurements: paper PMC9203742 (Nature Communications, 2022)
“And” between values parts separate entries of the source, which are not always exact repeats. Equal entries are not always repeated.

Columns and labels:
[1] = system: Purkinje cells in cerebellar slices from mGlu1^CBC/CBC mice; assay: chemLTD recording (PF-EPSC) in Purkinje cells of acute cerebellar slices, mGlu1^CBC/CBC mice; type: cell-based, mouse; conditions: DHPG 50 μM for 10 min; t = 31−35 min
Protocol: (§1) Sagittal cerebellar slices were cut with a microslicer (Linear slicer Pro7; DOSAKA EM) in cutting solution buffer and then incubated in ACSF gassed with 5% CO2 and 95% O2 at room temperature.
(§2) Whole-cell patch-clamp recordings were made from visually identified Purkinje cells using a 60× water-immersion objective attached to an upright microscope (BX51WI, Olympus) at room temperature, as described previously. […] Picrotoxin (100 µM; Sigma) was always added to the saline to block inhibitory synaptic transmission.
(§3) To evoke EPSCs derived from CF (CF-EPSCs) and PF (PF-EPSCs) inputs onto Purkinje cells, square pulses were applied through a stimulating electrode placed on the granular layer and the molecular layer (50 µm away from the pial surface), respectively. The selective stimulation of CFs and PFs was confirmed by the paired-pulse depression (PPD) and paired-pulse facilitation (PPF) of EPSC amplitudes at a 50-ms interstimulus interval (ISI), respectively.
(§4) For the LTD sessions, PF-EPSCs were recorded successively at a frequency of 0.1 Hz from Purkinje cells clamped at –80 mV. After a stable PF-EPSC amplitude had been observed for at least 5 min, a conjunctive stimulation that consisted of 30 single PF stimuli together with a 200 ms depolarizing pulse from a holding potential of –60 to +20 mV was applied for LTD induction.
(§5) To chemically induce LTD (chemLTD), 50 µM (S)-3,5-dihydroxyphenylglycine (DHPG) or 1 µM Pd(sulfo-bpy) was applied for 10 min in a current-clamp mode. We often observed a transient decrease in PF-EPSC amplitude after the application of each drug probably because Purkinje cells under current-clamp conditions excite spontaneously to suppress presynaptic function through the retrograde signaling. Access resistances were monitored every 10 s by measuring the peak currents in response to 2 mV, 50-ms hyperpolarizing steps throughout the experiments; the measurements were discarded if the resistance changed by >20% of its original value. The normalized EPSC amplitude on the ordinate represents the EPSC amplitude for the average of six traces for 1 min divided by that of the average of six traces for 1 min immediately before the conjunctive stimulation or the drug application.

[2] = system: MLIs infected with AAV-hSyn-mGlu1^WT; assay: sAP-mediated currents (firing rate) of MLIs infected with AAV-hSyn-mGlu1^WT; type: cell-based, mouse;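 for Pd/CTL, AVE: 10 µM Pd complex applied to the bath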;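 for Pd/CTL, individual MLIs: 10 µM Pd complex applied to the bath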;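 for firing rate with Pd, AVE(Hz): 10 µM Pd complex applied to the bath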;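 for number of sAP-mediated currents with Pd, AVE: 10 µM Pd complex applied to the bath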;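 for number of sAP-mediated currents with Pd, individual MLIs: 10 µM Pd complex applied to the bath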
Protocol: (§6) To monitor the excitability of MLIs, sAP-mediated current responses were extracellulary recorded by a loose cell-attached voltage-clamp at a holding potential of 0 mV. Glass electrodes used for cell-attached recordings had resistances of 3–5 MΩ when filled with ACSF. The current recordings from AAV-infected cells were performed 1−2 weeks after infection. The EPSCs and sAP-mediated currents were recorded using an Axopatch 200B amplifier (Molecular Devices), and the pClamp system (version 9.2; Molecular Devices) was used for data acquisition and analysis. The signals were filtered at 1 kHz and digitized at 4 kHz for the evoked EPSCs and 10 kHz for the sAP-mediated currents.
(§7) Injection of viral solutions was performed as described previously with slight modifications. Briefly, under deep anesthesia, with an intraperitoneal injection of medetomidine (0.3 mg/kg), midazolam (4.0 mg/kg), and butorphanol (5.0 mg/kg), 4 µL of the solutions containing AAV mixture were directly injected into the vermis of cerebellar lobules V-VIII (200-300 µm in depth, 12 µL/h in rate) of WT mice (C57BL/6J, P20-P30) using glass pipette (30–40 µm in diameter) and microinjector (Nanoliter; World Precision Instruments). In all, 1−2 week after injection, the mice were used for each experiment.

[3] = system: MLIs infected with AAV-hSyn-mGlu1^CBC; assay: sAP-mediated currents (firing rate) of MLIs infected with AAV-hSyn-mGlu1^CBC; type: cell-based, mouse;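 for Pd/CTL, AVE: 10 µM Pd complex applied to the bath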;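 for Pd/CTL, individual MLIs: 10 µM Pd complex applied to the bath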;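 for firing rate with Pd, AVE(Hz): 10 µM Pd complex applied to the bath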;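 for number of sAP-mediated currents with Pd, AVE: 10 µM Pd complex applied to the bath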
Protocol: as §6, §7

[4] = system: Purkinje cells in cerebellar slices from mGlu1^+/+ mice; assay: chemLTD recording (PF-EPSC) in Purkinje cells of acute cerebellar slices, mGlu1^+/+ mice; type: cell-based, mouse; conditions: DHPG 50 μM for 10 min; t = 31−35 min
Protocol: as §1, §2, §3, §4, §5

[5] = biological target: T1, mGlu1 E60H/N264H mutant (Rattus norvegicus, UniProt P23385, E60H/N264H); assay: Fura-2 Ca2+ imaging in HEK293 cells expressing mGlu1 E60H/N264H; type: cell-based; conditions: 10 μM metal ion or metal complex
T1 construct: expressed in transfected cells; host or cells: HEK293
T1 sequence (P23385 19-1199 E60H/N264H): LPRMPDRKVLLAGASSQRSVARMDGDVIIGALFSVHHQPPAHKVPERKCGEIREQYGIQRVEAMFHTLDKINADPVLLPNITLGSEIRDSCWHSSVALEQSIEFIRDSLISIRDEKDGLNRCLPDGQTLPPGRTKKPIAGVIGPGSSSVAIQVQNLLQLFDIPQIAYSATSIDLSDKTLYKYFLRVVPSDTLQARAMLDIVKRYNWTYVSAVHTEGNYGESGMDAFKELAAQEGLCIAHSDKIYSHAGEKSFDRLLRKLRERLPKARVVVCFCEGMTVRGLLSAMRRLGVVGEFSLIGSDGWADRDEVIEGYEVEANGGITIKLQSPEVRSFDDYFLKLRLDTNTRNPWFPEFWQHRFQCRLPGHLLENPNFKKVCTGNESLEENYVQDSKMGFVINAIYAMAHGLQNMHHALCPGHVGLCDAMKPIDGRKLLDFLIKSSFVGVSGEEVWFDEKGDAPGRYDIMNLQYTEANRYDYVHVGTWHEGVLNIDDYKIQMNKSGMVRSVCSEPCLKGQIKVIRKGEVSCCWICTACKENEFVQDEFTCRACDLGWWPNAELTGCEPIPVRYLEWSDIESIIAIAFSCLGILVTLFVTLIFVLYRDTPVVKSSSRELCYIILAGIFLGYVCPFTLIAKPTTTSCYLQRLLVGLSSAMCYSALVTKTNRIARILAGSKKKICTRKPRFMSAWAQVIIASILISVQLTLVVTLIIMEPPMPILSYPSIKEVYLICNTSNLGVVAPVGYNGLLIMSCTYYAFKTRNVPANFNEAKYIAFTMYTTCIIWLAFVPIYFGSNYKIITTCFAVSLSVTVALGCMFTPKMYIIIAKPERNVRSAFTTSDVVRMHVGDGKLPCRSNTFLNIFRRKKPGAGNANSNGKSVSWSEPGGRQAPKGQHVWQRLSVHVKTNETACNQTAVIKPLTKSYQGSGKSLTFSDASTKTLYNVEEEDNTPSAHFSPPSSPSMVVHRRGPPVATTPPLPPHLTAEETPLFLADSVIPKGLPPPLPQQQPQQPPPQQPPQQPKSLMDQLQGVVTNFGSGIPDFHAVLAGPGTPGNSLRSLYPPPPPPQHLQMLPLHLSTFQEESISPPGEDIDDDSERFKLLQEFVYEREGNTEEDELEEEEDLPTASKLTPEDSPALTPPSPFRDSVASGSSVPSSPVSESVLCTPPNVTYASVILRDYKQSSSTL

[6] = biological target: T2, mGlu1 K61H/N264H mutant (Rattus norvegicus, UniProt P23385, K61H/N264H); assay: Fura-2 Ca2+ imaging in HEK293 cells expressing mGlu1 K61H/N264H; type: cell-based; conditions: 10 μM metal ion or metal complex
T2 construct: expressed in transfected cells; host or cells: HEK293
T2 sequence (P23385 19-1199 K61H/N264H): as the sequence (P23385 19-1199 E60H/N264H) above, with H42E, K43H counted along it

[7] = system: MLIs surrounded by mGlu1(N264H)-expressing Purkinje cells (AAV-L7-mGlu1^CBC); assay: sAP-mediated currents (firing rate) of MLIs in slices infected with AAV-L7-mGlu1^CBC; type: cell-based, mouse; conditions: AAV-L7-mGlu1CBC;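 note: 10 µM Pd complex applied to the bath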
Protocol: as §6, §7

[8] = biological target: T3, mGlu1 P58H/N264H mutant (Rattus norvegicus, UniProt P23385, N264H/P58H); assay: Fura-2 Ca2+ imaging in HEK293 cells expressing mGlu1 P58H/N264H; type: cell-based; conditions: 10 μM metal ion or metal complex
T3 construct: expressed in transfected cells; host or cells: HEK293
T3 sequence (P23385 19-1199 P58H/N264H): as the sequence (P23385 19-1199 E60H/N264H) above, with P40H, H42E counted along it

[9] = Suppl Fig14d, AAV-hSyn-mGlu1WT, mean of 12 cells
[10] = Suppl Fig14d, AAV-hSyn-mGlu1CBC, mean of 15 cells

With N[C@H](C(=O)O)c1cc(O)cc(O)c1 [DHPG, (S)-3,5-dihydroxyphenylglycine] the “chemLTD: normalized PF-EPSC amplitude” value [1] was 56 ± 6%, the “firing rate, DHPG (50uM), AVE(Hz)” value ([2]; Suppl Fig14d, AAV-hSyn-mGlu1WT, mean) was 10.6722 Hz and the “DHPG/CTL, AVE” value [2, 9] was 1.47. The “sAP events, DHPG (50uM), AVE” value [2, 9] was 320.167, the “Number of spontaneous action potentials (sAP)” value ([2]; bath application of 50 µM DHPG) was “clearly increased” and the “firing rate, DHPG (50uM), AVE(Hz)” value ([3]; Suppl Fig14d, AAV-hSyn-mGlu1CBC, mean) was 11.5511 Hz. The “DHPG/CTL, AVE” value [3, 10] was 1.507, the “sAP events, DHPG (50uM), AVE” value [3, 10] was 346.533 and the “Number of spontaneous action potentials (sAP)” value ([3]; bath application of 50 µM DHPG) was “clearly increased”. For the same compound, the “chemLTD: normalized PF-EPSC amplitude” value [4] was 55 ± 7%.

With [Pd+2] [Pd^2+] the “Receptor activation ([Ca2+]i change, Δratio)” value [5] was “also activated”, the “firing rate with Pd, AVE(Hz)” value ([2]; AAV-hSyn-mGlu1WT, Pd) was 8.021 Hz and the “number of sAP-mediated currents with Pd, individual MLIs” value ([2]; AAV-hSyn-mGlu1WT, Pd) was 195 and 227 and 165 and 235 and 230 and 276 and 213 and 238 and 272 and 431 and 142 and 211 and 228 and 253 and 240 and 294. The “number of sAP-mediated currents with Pd, AVE” value (“number … AVE” for short) ([2]; AAV-hSyn-mGlu1WT, Pd, average of 16 MLIs) was 240.625, the “Pd/CTL, AVE” value ([2]; AAV-hSyn-mGlu1WT, average of 16 MLIs) was 1.02 and the “Pd/CTL, individual MLIs” value ([2]; AAV-hSyn-mGlu1WT, ratio of sAP-mediated currents Pd vs CTL) was 0.9466 and 0.8833 and 1.065 and 1.119 and 1.05 and 1.091 and 1.081 and 0.9958 and 0.8947 and 1.005 and 0.9161 and 0.8474 and 1.013 and 1.182 and 1.106 and 1.126. The “firing rate with Pd, AVE(Hz)” value ([3]; AAV-hSyn-mGlu1CBC, Pd) was 9.847 Hz, the “number … AVE” value ([3]; AAV-hSyn-mGlu1CBC, Pd, average of 22 MLIs) was 295.409 and the “Pd/CTL, AVE” value ([3]; AAV-hSyn-mGlu1CBC, average of 22 MLIs) was 1.392. For the same compound, the “Pd/CTL, individual MLIs” value ([3]; AAV-hSyn-mGlu1CBC, ratio of sAP-mediated currents Pd vs CTL) was 1.204 and 2.167 and 1.052 and 0.9801 and 1.6822 and 1.455 and 1.074 and 1.288 and 1.082 and 1.081 and 1.083 and 2.412 and 1.119 and 3.478 and 1.177 and 1.12 and 1.045 and 1.16 and 1.215 and 1.142 and 1.333 and 1.265, the “Receptor activation ([Ca2+]i change, Δratio)” value [6] was “also activated” and the “firing rate with Pd, AVE(Hz)” value ([7]; Pd) was 8.376 Hz. The “number of sAP-mediated currents with Pd, individual MLIs” value ([7]; Pd) was 269 and 246 and 275 and 319 and 316 and 259 and 286 and 137 and 343 and 147 and 282 and 292 and 186, the “number … AVE” value ([7]; Pd, average of 15 MLIs) was 251.267 and the “Pd/CTL, AVE” value ([7]; average of 15 MLIs) was 1.024. For the same compound, the “Pd/CTL, individual MLIs” value ([7]; ratio of sAP-mediated currents Pd vs CTL) was 0.9181 and 1.134 and 0.9516 and 1.085 and 1.01 and 1.008 and 1.018 and 1.161 and 1.003 and 1.105 and 0.9786 and 0.9216 and 1.028 and 0.9928 and 1.051 and the “Receptor activation ([Ca2+]i change, Δratio)” value [8] was “also activated”.
